Experimental data from PubChem BioAssay (NCI).
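Cultured in 96-well plates, cells were exposed to test compound for 48 hours across five concentrations. At the TGI there is no net growth.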

What was measured:
Assay in all cases: NCI-60 cell line screen, 48 h
RPMI-8226 leukemia = system: RPMI-8226 leukemia
SK-OV-3 ovarian = system: SK-OV-3 ovarian
SF-539 CNS = system: SF-539 CNS
SR leukemia = system: SR leukemia
KM20L2 colon = system: KM20L2 colon
EKVX NSCLC = system: EKVX NSCLC
HCT-15 colon = system: HCT-15 colon
K-562 leukemia = system: K-562 leukemia
SNB-19 CNS = system: SNB-19 CNS
OVCAR-3 ovarian = system: OVCAR-3 ovarian
XF 498 CNS = system: XF 498 CNS
UACC-62 melanoma = system: UACC-62 melanoma
U251 CNS = system: U251 CNS
IGROV1 ovarian = system: IGROV1 ovarian
HOP-62 NSCLC = system: HOP-62 NSCLC
HT29 colon = system: HT29 colon
TK-10 renal = system: TK-10 renal
DMS 273 small cell lung = system: DMS 273 small cell lung
NCI-H522 lung = system: NCI-H522 lung
ACHN renal = system: ACHN renal
LXFL 529 NSCLC = system: LXFL 529 NSCLC
HOP-92 NSCLC = system: HOP-92 NSCLC
MOLT-4 leukemia = system: MOLT-4 leukemia
OVCAR-8 ovarian = system: OVCAR-8 ovarian
CAKI-1 renal = system: CAKI-1 renal
M19-MEL melanoma = system: M19-MEL melanoma
DLD-1 colon = system: DLD-1 colon
COLO 205 colon = system: COLO 205 colon
786-0 renal = system: 786-0 renal
A498 renal = system: A498 renal
SK-MEL-28 melanoma = system: SK-MEL-28 melanoma
SK-MEL-5 melanoma = system: SK-MEL-5 melanoma
KM12 colon = system: KM12 colon
A549 NSCLC = system: A549 NSCLC
UO-31 renal = system: UO-31 renal
CCRF-CEM leukemia = system: CCRF-CEM leukemia
SNB-78 CNS = system: SNB-78 CNS
DMS 114 small cell lung = system: DMS 114 small cell lung
SN12C renal = system: SN12C renal
SF-268 CNS = system: SF-268 CNS
SK-MEL-2 melanoma = system: SK-MEL-2 melanoma
HCT-116 colon = system: HCT-116 colon
MALME-3M melanoma = system: MALME-3M melanoma
NCI-H23 lung = system: NCI-H23 lung
OVCAR-5 ovarian = system: OVCAR-5 ovarian
M14 melanoma = system: M14 melanoma
NCI-H460 lung = system: NCI-H460 lung
SW-620 colon = system: SW-620 colon
SNB-75 CNS = system: SNB-75 CNS
NCI-H226 lung = system: NCI-H226 lung
OVCAR-4 ovarian = system: OVCAR-4 ovarian
HCC-2998 colon = system: HCC-2998 colon
HL-60(TB) leukemia = system: HL-60(TB) leukemia
RXF 393 renal = system: RXF 393 renal
UACC-257 melanoma = system: UACC-257 melanoma
SF-295 CNS = system: SF-295 CNS
LOX IMVI melanoma = system: LOX IMVI melanoma
HOP-18 NSCLC = system: HOP-18 NSCLC

CCOC(=O)Cn1c(=O)n(C)c(=O)c2c1ncn2Cc1ccccc1
TGI (RPMI-8226 leukemia): > 100 µM
TGI (SK-OV-3 ovarian): > 100 µM
TGI (SF-539 CNS): > 100 µM
TGI (SR leukemia): > 100 µM
TGI (KM20L2 colon): > 100 µM
TGI (EKVX NSCLC): > 100 µM
TGI (HCT-15 colon): > 100 µM
TGI (K-562 leukemia): > 100 µM
TGI (SNB-19 CNS): > 100 µM
TGI (OVCAR-3 ovarian): > 100 µM
TGI (XF 498 CNS): > 100 µM
TGI (UACC-62 melanoma): > 100 µM
TGI (U251 CNS): > 100 µM
TGI (IGROV1 ovarian): > 100 µM
TGI (HOP-62 NSCLC): > 100 µM
TGI (HT29 colon): > 100 µM
TGI (TK-10 renal): > 100 µM
TGI (DMS 273 small cell lung): > 100 µM
TGI (NCI-H522 lung): > 100 µM
TGI (ACHN renal): > 100 µM
TGI (LXFL 529 NSCLC): > 100 µM
TGI (HOP-92 NSCLC): > 100 µM
TGI (MOLT-4 leukemia): > 100 µM
TGI (OVCAR-8 ovarian): > 100 µM
TGI (CAKI-1 renal): > 100 µM
TGI (M19-MEL melanoma): > 100 µM
TGI (DLD-1 colon): > 100 µM
TGI (COLO 205 colon): > 100 µM
TGI (786-0 renal): > 100 µM
TGI (A498 renal): > 100 µM
TGI (SK-MEL-28 melanoma): > 100 µM
TGI (SK-MEL-5 melanoma): > 100 µM
TGI (KM12 colon): > 100 µM
TGI (A549 NSCLC): > 100 µM
TGI (UO-31 renal): > 100 µM
TGI (CCRF-CEM leukemia): > 100 µM
TGI (SNB-78 CNS): > 100 µM
TGI (DMS 114 small cell lung): > 100 µM
TGI (SN12C renal): > 100 µM
TGI (SF-268 CNS): > 100 µM
TGI (SK-MEL-2 melanoma): > 100 µM
TGI (HCT-116 colon): > 100 µM
TGI (MALME-3M melanoma): > 100 µM
TGI (NCI-H23 lung): > 100 µM
TGI (OVCAR-5 ovarian): > 100 µM
TGI (M14 melanoma): > 100 µM
TGI (NCI-H460 lung): > 100 µM
TGI (SW-620 colon): > 100 µM
TGI (SNB-75 CNS): > 100 µM
TGI (NCI-H226 lung): > 100 µM

Cc1cccc(N=C2NC(=O)C(CC(=O)Nc3cccc(C)c3C)S2)c1 (stereo unspecified)
TGI (RPMI-8226 leukemia): > 100 µM
TGI (KM20L2 colon): > 100 µM
TGI (EKVX NSCLC): > 100 µM
TGI (SNB-19 CNS): > 100 µM
TGI (OVCAR-3 ovarian): > 100 µM
TGI (XF 498 CNS): > 100 µM
TGI (UACC-62 melanoma): > 100 µM
TGI (U251 CNS): > 100 µM
TGI (IGROV1 ovarian): > 100 µM
TGI (HOP-62 NSCLC): > 100 µM
TGI (OVCAR-4 ovarian): > 100 µM
TGI (HT29 colon): > 100 µM
TGI (TK-10 renal): > 100 µM
TGI (ACHN renal): > 100 µM
TGI (LXFL 529 NSCLC): > 100 µM
TGI (HOP-92 NSCLC): > 100 µM
TGI (MOLT-4 leukemia): > 100 µM
TGI (OVCAR-8 ovarian): > 100 µM
TGI (M19-MEL melanoma): > 100 µM
TGI (HCC-2998 colon): > 100 µM
TGI (DLD-1 colon): > 100 µM
TGI (HL-60(TB) leukemia): > 100 µM
TGI (COLO 205 colon): > 100 µM
TGI (786-0 renal): > 100 µM
TGI (SK-MEL-28 melanoma): > 100 µM
TGI (SK-MEL-5 melanoma): > 100 µM
TGI (KM12 colon): > 100 µM
TGI (A549 NSCLC): > 100 µM
TGI (RXF 393 renal): > 100 µM
TGI (UO-31 renal): > 100 µM
TGI (CCRF-CEM leukemia): > 100 µM
TGI (SNB-78 CNS): > 100 µM
TGI (UACC-257 melanoma): > 100 µM
TGI (DMS 114 small cell lung): > 100 µM
TGI (SN12C renal): > 100 µM
TGI (SF-268 CNS): > 100 µM
TGI (SK-MEL-2 melanoma): > 100 µM
TGI (SF-295 CNS): > 100 µM
TGI (HCT-116 colon): > 100 µM
TGI (LOX IMVI melanoma): > 100 µM
TGI (MALME-3M melanoma): > 100 µM
TGI (NCI-H23 lung): > 100 µM
TGI (OVCAR-5 ovarian): > 100 µM
TGI (M14 melanoma): > 100 µM
TGI (NCI-H460 lung): > 100 µM
TGI (SW-620 colon): > 100 µM
TGI (SNB-75 CNS): > 100 µM
TGI (NCI-H226 lung): > 100 µM

CN(C)CCSc1nccc(-c2cc3ccccc3s2)n1
TGI (SK-OV-3 ovarian): 94.9 µM
TGI (SF-539 CNS): 37.2 µM
TGI (SR leukemia): 63.4 µM
TGI (HCT-15 colon): 37.6 µM
TGI (OVCAR-3 ovarian): > 100 µM
TGI (UACC-62 melanoma): 40.4 µM
TGI (U251 CNS): 57.1 µM
TGI (IGROV1 ovarian): > 100 µM
TGI (HOP-62 NSCLC): 52.7 µM
TGI (OVCAR-4 ovarian): 82.2 µM
TGI (HT29 colon): 24.3 µM
TGI (DMS 273 small cell lung): 34.1 µM
TGI (NCI-H522 lung): 36.7 µM
TGI (LXFL 529 NSCLC): 30.9 µM
TGI (HOP-92 NSCLC): 33.5 µM
TGI (MOLT-4 leukemia): 66.1 µM
TGI (OVCAR-8 ovarian): 65 µM
TGI (CAKI-1 renal): 56.7 µM
TGI (HCC-2998 colon): 29.3 µM
TGI (DLD-1 colon): > 100 µM
TGI (COLO 205 colon): 35.1 µM
TGI (786-0 renal): 63.4 µM
TGI (A498 renal): 58.3 µM
TGI (SK-MEL-28 melanoma): 40.9 µM
TGI (SK-MEL-5 melanoma): 27.9 µM
TGI (KM12 colon): 48.2 µM
TGI (A549 NSCLC): 36.6 µM
TGI (RXF 393 renal): 56 µM
TGI (UO-31 renal): 47.6 µM
TGI (CCRF-CEM leukemia): 59.4 µM
TGI (SNB-78 CNS): 47.8 µM
TGI (DMS 114 small cell lung): 51.6 µM
TGI (SN12C renal): > 100 µM
TGI (SK-MEL-2 melanoma): 33.5 µM
TGI (SF-295 CNS): 31 µM
TGI (HCT-116 colon): 50.9 µM
TGI (LOX IMVI melanoma): 32.2 µM
TGI (MALME-3M melanoma): 36 µM
TGI (OVCAR-5 ovarian): 82.4 µM
TGI (M14 melanoma): 32.3 µM
TGI (NCI-H460 lung): 28 µM
TGI (SW-620 colon): 36.7 µM
TGI (SNB-75 CNS): > 100 µM
TGI (NCI-H226 lung): 38 µM

C/C(CCn1[nH]c(=O)ccc1=O)=N\OCCCc1ccccc1
TGI (RPMI-8226 leukemia): > 100 µM
TGI (HOP-18 NSCLC): > 100 µM
TGI (SF-539 CNS): > 100 µM
TGI (SR leukemia): > 100 µM
TGI (KM20L2 colon): > 100 µM
TGI (EKVX NSCLC): > 100 µM
TGI (HCT-15 colon): > 100 µM
TGI (K-562 leukemia): > 100 µM
TGI (SNB-19 CNS): > 100 µM
TGI (OVCAR-3 ovarian): > 100 µM
TGI (XF 498 CNS): > 100 µM
TGI (UACC-62 melanoma): > 100 µM
TGI (IGROV1 ovarian): > 100 µM
TGI (HOP-62 NSCLC): > 100 µM
TGI (OVCAR-4 ovarian): > 100 µM
TGI (HT29 colon): > 100 µM
TGI (TK-10 renal): > 100 µM
TGI (DMS 273 small cell lung): > 100 µM
TGI (ACHN renal): > 100 µM
TGI (LXFL 529 NSCLC): > 100 µM
TGI (HOP-92 NSCLC): > 100 µM
TGI (MOLT-4 leukemia): > 100 µM
TGI (OVCAR-8 ovarian): > 100 µM
TGI (CAKI-1 renal): > 100 µM
TGI (M19-MEL melanoma): > 100 µM
TGI (HCC-2998 colon): > 100 µM
TGI (DLD-1 colon): > 100 µM
TGI (HL-60(TB) leukemia): > 100 µM
TGI (786-0 renal): > 100 µM
TGI (A498 renal): > 100 µM
TGI (SK-MEL-28 melanoma): > 100 µM
TGI (SK-MEL-5 melanoma): > 100 µM
TGI (KM12 colon): > 100 µM
TGI (A549 NSCLC): > 100 µM
TGI (RXF 393 renal): > 100 µM
TGI (UO-31 renal): > 100 µM
TGI (CCRF-CEM leukemia): > 100 µM
TGI (SNB-78 CNS): > 100 µM
TGI (UACC-257 melanoma): > 100 µM
TGI (DMS 114 small cell lung): > 100 µM
TGI (SN12C renal): > 100 µM
TGI (SF-268 CNS): > 100 µM
TGI (SK-MEL-2 melanoma): > 100 µM
TGI (SF-295 CNS): > 100 µM
TGI (HCT-116 colon): > 100 µM
TGI (LOX IMVI melanoma): > 100 µM
TGI (MALME-3M melanoma): > 100 µM
TGI (NCI-H23 lung): > 100 µM
TGI (OVCAR-5 ovarian): > 100 µM
TGI (M14 melanoma): > 100 µM
TGI (NCI-H460 lung): > 100 µM
TGI (SW-620 colon): > 100 µM
TGI (SNB-75 CNS): > 100 µM
TGI (NCI-H226 lung): > 100 µM
